Experimental data as given in PubChem BioAssay AID1259407 (Chemical Carcinogenesis Research Information System (CCRIS), 2018).
The source made the active and inactive calls. How the calls were made is not given here.

Test system: CCRIS mutagenicity, Ames/micronucleus/aberration tests
Assay: CCRIS mutagenicity studies
[1] = Test System: AMES SALMONELLA TYPHIMURIUM, Strain/Indicator: TA98, Metabolic Activation: NONE, Method: STANDARD PLATE
[2] = Test System: AMES SALMONELLA TYPHIMURIUM, Strain/Indicator: TA100, Metabolic Activation: NONE, Method: STANDARD PLATE
[3] = Test System: AMES SALMONELLA TYPHIMURIUM, Strain/Indicator: TA100, Metabolic Activation: NONE, Method: PREINCUBATION
[4] = Test System: AMES SALMONELLA TYPHIMURIUM, Strain/Indicator: TA98, Metabolic Activation: NONE, Method: PREINCUBATION

Compound: Cc1ccc2nsc(NC(=O)C(Cl)(Cl)Cl)c2c1
- mutagenic call [1]: active; positive
- mutagenic call (Test System: AMES SALMONELLA TYPHIMURIUM, Strain/Indicator: TA98, Metabolic Activation: S-9, Method: STANDARD PLATE): active; positive
- mutagenic call [2]: active; positive
- mutagenic call (Test System: AMES SALMONELLA TYPHIMURIUM, Strain/Indicator: TA100, Metabolic Activation: S-9, Method: STANDARD PLATE): active; positive
- mutagenic call (Test System: AMES SALMONELLA TYPHIMURIUM, Strain/Indicator: TA1535, Metabolic Activation: NONE, Method: STANDARD PLATE): inactive; negative
- mutagenic call (Test System: AMES SALMONELLA TYPHIMURIUM, Strain/Indicator: TA1535, Metabolic Activation: S-9, Method: STANDARD PLATE): inactive; negative
- mutagenic call (Test System: AMES SALMONELLA TYPHIMURIUM, Strain/Indicator: TA1537, Metabolic Activation: NONE, Method: STANDARD PLATE): inactive; negative
- mutagenic call (Test System: AMES SALMONELLA TYPHIMURIUM, Strain/Indicator: TA1537, Metabolic Activation: S-9, Method: STANDARD PLATE): inactive; negative

Compound: Cc1ccc(C(=O)O[C@@H](C(=O)O)[C@@H](OC(=O)c2ccc(C)cc2)C(=O)O)cc1 (tested in a mixture with another compound)
- mutagenic call (Test System: AMES SALMONELLA TYPHIMURIUM, Strain/Indicator: TA98, Metabolic Activation: RAT, LIVER, S-9, AROCLOR 1254, Method: STANDARD PLATE): active; positive
- mutagenic call [2]: inactive; negative
- mutagenic call (Test System: AMES SALMONELLA TYPHIMURIUM, Strain/Indicator: TA100, Metabolic Activation: RAT, LIVER, S-9, AROCLOR 1254, Method: STANDARD PLATE): active; positive
- mutagenic call (Test System: AMES SALMONELLA TYPHIMURIUM, Strain/Indicator: TA1537, Metabolic Activation: RAT, LIVER, S-9, AROCLOR 1254, Method: STANDARD PLATE): active; positive

Compound: CC1(c2ccc(Cl)cc2)CO1 (stereo not given)
- mutagenic call [3]: active; positive

Compound: [O-][Cl+3]([O-])([O-])O
- mutagenic call [4]: inactive; negative
- mutagenic call (Test System: AMES SALMONELLA TYPHIMURIUM, Strain/Indicator: TA98, Metabolic Activation: RAT LIVER S-9, PHENOBARBITAL AND BETA-NAPHTHOFLAVONE, Method: PREINCUBATION): inactive; negative
- mutagenic call [3]: inactive; negative
- mutagenic call (Test System: AMES SALMONELLA TYPHIMURIUM, Strain/Indicator: TA100, Metabolic Activation: RAT LIVER S-9, PHENOBARBITAL AND BETA-NAPHTHOFLAVONE, Method: PREINCUBATION): inactive; negative
- mutagenic call (Test System: AMES SALMONELLA TYPHIMURIUM, Strain/Indicator: TA1535, Metabolic Activation: NONE, Method: PREINCUBATION): inactive; negative
- mutagenic call (Test System: AMES SALMONELLA TYPHIMURIUM, Strain/Indicator: TA1535, Metabolic Activation: RAT LIVER S-9, PHENOBARBITAL AND BETA-NAPHTHOFLAVONE, Method: PREINCUBATION): inactive; negative
- mutagenic call (Test System: AMES SALMONELLA TYPHIMURIUM, Strain/Indicator: TA1537, Metabolic Activation: NONE, Method: PREINCUBATION): inactive; negative
- mutagenic call (Test System: AMES SALMONELLA TYPHIMURIUM, Strain/Indicator: TA1537, Metabolic Activation: RAT LIVER S-9, PHENOBARBITAL AND BETA-NAPHTHOFLAVONE, Method: PREINCUBATION): inactive; negative
- mutagenic call (Test System: AMES SALMONELLA TYPHIMURIUM, Strain/Indicator: TA1538, Metabolic Activation: NONE, Method: PREINCUBATION): inactive; negative
- mutagenic call (Test System: AMES SALMONELLA TYPHIMURIUM, Strain/Indicator: TA1538, Metabolic Activation: RAT LIVER S-9, PHENOBARBITAL AND BETA-NAPHTHOFLAVONE, Method: PREINCUBATION): inactive; negative
- mutagenic call (Test System: E.COLI, Strain/Indicator: WP2UVRA, Metabolic Activation: NONE, Method: PREINCUBATION): inactive; negative
- mutagenic call (Test System: E.COLI, Strain/Indicator: WP2UVRA, Metabolic Activation: RAT LIVER S-9, PHENOBARBITAL AND BETA-NAPHTHOFLAVONE, Method: PREINCUBATION): inactive; negative

Compound: C=C(C)C1CC=C(CO)CC1 (stereo not given)
- mutagenic call (Test System: Mouse lymphoma, Strain/Indicator: L5178Y (tk+/tk-), Metabolic Activation: None, Method: Suspension/plate): inactive; negative
- mutagenic call (Test System: Mouse lymphoma, Strain/Indicator: L5178Y (tk+/tk-), Metabolic Activation: Rat, Liver, S-9, Aroclor 1254, Method: Suspension/plate): inactive; positive. retest at same dose: negative

Compound: Fc1ccc2ccc3cccnc3c2c1
- mutagenic call (Test System: AMES SALMONELLA TYPHIMURIUM, Strain/Indicator: TA100, Metabolic Activation: RAT, LIVER, S-9, PHENOBARBITAL AND 5,6-BENZOFLAVONE, Method: PREINCUBATION): active; positive

Compound: CC1(C)C[C@@H]2[C@@]34C[C@]3(C(C=O)=C[C@]2(O)C1)[C@@H](O)OC4=O
- mutagenic call [1]: active; positive
- mutagenic call [2]: active; positive
- mutagenic call (Test System: AMES SALMONELLA TYPHIMURIUM, Strain/Indicator: TA2637, Metabolic Activation: NONE, Method: STANDARD PLATE): active; positive

Compound: Cn1cnc2c3cccnc3ccc21
- mutagenic call [4]: active; positive
- mutagenic call (Test System: AMES SALMONELLA TYPHIMURIUM, Strain/Indicator: TA98, Metabolic Activation: RAT, LIVER, S-9, AROCLOR 1254, Method: PREINCUBATION): active; positive
- mutagenic call [3]: active; positive
- mutagenic call (Test System: AMES SALMONELLA TYPHIMURIUM, Strain/Indicator: TA100, Metabolic Activation: RAT, LIVER, S-9, AROCLOR 1254, Method: PREINCUBATION): active; positive
